Experimental data from publication PMC10714399, “Open Source Antibiotics: Simple Diarylimidazoles Are Potent against Methicillin-Resistant Staphylococcus aureus” (ACS Infectious Diseases, 2023).
≈ marks a conversion by molar mass, not a printed value. Like-named read-outs stand apart in the source and are kept apart here.

Key:
[1] = In vitro metabolic stability, human liver microsomes (Monash); type: in vitro ADME; settings: Monash; for microsomal CLint at 1 µM: read-out: HLM Clint (Monash); for half-life at 1 µM: read-out: HLM t1/2 (Monash)
Experimental: (§1) The metabolic stability assay was performed by incubating each test compound with a suspension of liver microsomes (0.4 mg/mL protein, 1 μM substrate, 37 °C). Microsomes were purchased from XenoTech. The metabolic reaction was initiated by the addition of an NADPH-regenerating system and quenched at various time points over a 60 min incubation by the addition of acetonitrile containing metolazone as an internal standard. Control samples (containing no NADPH) were included (quenched at 2, 30, and 60 min) to monitor for potential degradation in the absence of cofactor. […]
(§2) d) In Vitro Metabolic Stability
(§3) The metabolic stability assay was performed by incubating each test compound with a suspension of liver
(§4) microsomes (0.4 mg/mL, 37°C). The metabolic reaction was initiated by the addition of an NADPH-regenerating
(§5) system and quenched at various time points over a 60 minute incubation by the addition of acetonitrile containing
(§6) metolazone as internal standard. Control samples (containing no NADPH) were included (quenched at 2, 30 and 60
(§7) minutes) to monitor for potential degradation in the absence of cofactor.
(§8) The human liver microsomes used in this experiment were supplied by XenoTech, lot # 1710084.The rat liver
(§9) microsomes used in this experiment were supplied by XenoTech, lot # 1610290. Microsomal incubations were
(§10) performed at a substrate concentration of 1 µM.
(§11) Data analysis and interpretation:
(§12) Substrate depletion as a function of time was analysed as described by Obach (1999) Drug Metab. Dispos., 27:1350-
(§13) 1359. Intrinsic clearance (CLint) values were classified at the limits of low and high clearance bands based on a
(§14) rearrangement of the well stirred model of hepatic elimination. It should be noted that the potential impact of
(§15) compound binding (either in microsomes or in blood) on the relationship between in vitro intrinsic clearance and
(§16) hepatic clearance in vivo has not been accounted for in these studies.
(§17) In Vitro Intrinsic Clearance
(§18) Species (µL/min/mg protein)
(§19) Low Clearance High Clearance
(§20) Experimental results are tabulated on the following page(s).
(§21) (1 picture or pasted object on this page, not shown here)

[2] = Kinetic solubility estimation using nephelometry (Monash); type: physicochemical; settings: kinetic from dmso stock
Experimental: Compound in DMSO was spiked into either pH 6.5 phosphate buffer or 0.01 M HCl (approximately pH 2.0) with the final DMSO concentration being 1%. […]
b) Kinetic Solubility Estimation using Nephelometry (SolpH)
Compound in DMSO was spiked into either pH 6.5 phosphate buffer or 0.01 M HCl (approx pH 2.0) with the final
DMSO concentration being 1%. After 30 minutes had elapsed, samples were then analysed via Nephelometry to
determine a solubility range. See Bevan and Lloyd (2000) Anal Chem, 72:1781-1787. […]
(§22) In Vitro Intrinsic Clearance […]
as §20, §21

[3] = Distribution coefficient estimation using chromatography, gLogD (Monash); type: physicochemical; settings: gradient HPLC retention against standard compounds, pH 7.4
Description: Partition coefficient values (LogD) of the test compounds were estimated at pH 7.4 by the correlation of their chromatographic retention properties against the characteristics of a series of standard compounds with known partition coefficient values. The method employed is a gradient HPLC-based derivation of the method developed by Lombardo.[42] […]
c) Distribution Coefficient Estimation using Chromatography (gLogDpH)
Partition coefficient values (LogD) of the test compounds were estimated at pH 7.4 by correlation of their
chromatographic retention properties against the characteristics of a series of standard compounds with known
partition coefficient values. […]
as §22, §20, §21

[4] = Mouse liver microsome (MLM) metabolic stability (UNC); type: in vitro ADME
Description: Supplement id3c00286_si_002.xlsx, sheet "Series 2 Data" | column: MLM Clint (mL/min/kg) (UNC); MLM t1/2 (min) (UNC); MLM E (UNC)

[5] = system: Staphylococcus aureus ATCC 43300 MRSA; test: CO-ADD antibacterial assay (growth inhibition, MIC), MRSA; type: cell-based; settings: read-out: MRSA MIC (CO-ADD)
Experimental: Hit Confirmation of active compounds by whole cell growth inhibition assays was conducted as an 8-point dose response to determine the Minimum Inhibitory Concentration (MIC), in duplicate (n=2). The inhibition of growth is measured against those microorganisms that […]
Included in the Hit Confirmation were 5 bacteria: Escherichia coli, Klebsiella pneumoniae, Acinetobacter baumannii, Pseudomonas aeruginosa and Staphylococcus aureus, and 2 fungi Candida albicans and Cryptococcus neoformans. […]
Assay Parameters Bacteria Fungi HEK293 Haemolysis […]
Duplicate (n=2) Duplicate (n=2) Duplicate (n=2) Duplicate (n=2)
QC Control MIC: Control MIC: Control CC50: Control HC10:
Non-Binding Non-Binding TC, 384-well Polypropylene
Plates Surface (NBS), Surface (NBS), black wall/clear 384-well and 384-well plate 384-well plate bottom polystyrene 384-
Cation-adjusted Yeast Nitrogen DMEM
Media Mueller Hinton Base supplemented 0.9% NaCl
Hit Confirmation outcomes are detailed in individual Project reports, personalised for each Project Submission for each CO-ADD user.
Please see your data sheet with file extension P0XXX_HC_data.xlsx, for example CO-ADD Project P0100, P0100_HC_data.xlsx
Study: HC_data ID: HC-Procedures & Materials
Date: Last updated June 2018 Confidential Page 3 of 11
as §21
Samples were provided by the collaborator and stored frozen at -20 °C. Samples were prepared in DMSO and water to a final testing concentration of 32 µg/mL or 20 µM (unless otherwise indicated in the data sheet) and serially diluted 1:2 fold for 8 times. Each sample concentration was prepared in 384-well plates, non-binding surface plate (NBS; Corning 3640) for each bacterial/fungal strain, tissue-culture treated (TC-treated; Corning 3712/3764) black for mammalian cell types and polypropylene 384-well (PP; Corning 3657) for haemolysis assays, all in duplicate (n=2), and keeping the final DMSO concentration to a maximum of 0.5%. All the sample preparation was done using liquid handling robots. […]
detailed in the Data sheet for the individual Project.
All bacteria were cultured in Cation-adjusted Mueller Hinton broth (CAMHB) at 37 °C overnight. A sample of each culture was then diluted 40-fold in fresh broth and incubated at 37 °C for 1.5-3 h. The resultant mid-log phase cultures were diluted (CFU/mL measured by OD600), then added to each well of the compound containing plates, giving a cell density of 5×10^5 CFU/mL and a total volume of 50 µL. All the plates were covered and incubated at 37 °C for 18 h without shaking.
Inhibition of bacterial growth was determined measuring absorbance at 600 nm (OD600), using a Tecan M1000 Pro monochromator plate reader. The percentage of growth inhibition was calculated for each well, using the negative control (media only) and positive control (bacteria without inhibitors) on the same plate as references.
The percentage of growth inhibition was calculated for each well, using the negative control (media only) and positive control (bacteria without inhibitors) on the same plate. The MIC […]
by an inhibition ≥ 80%. In addition, the maximal percentage of growth inhibition is reported as DMax, indicating any compounds with partial activity.
Date: Last updated June 2018 Confidential Page 5 of 11
Material Code Brand/Supplier Cat No.
Compound preparation plate, Polypropylene PP Corning 3364
Assay Plates – Antimicrobial
Non-binding surface NBS 384w Corning 3640
Assay Plates – Cytotoxicity
Tissue culture treated Black/Clear bottom 384w Corning 3712
Assay Plates - Haemolysis PP-Haem Corning 3657 […]
Growth media - bacteria CAMHB Bacto Laboratories 212322
Culture agar - fungi YPD Becton Dickinson 242720
Growth media - fungi YNB Becton Dickinson 233520
Resazurin Sigma-Aldrich R7017
Dulbecco's Modified Eagle Medium DMEM Life Technologies 11995-073
Foetal Bovine Serum FBS Bovogen FFBS-500
0.9% NaCl Saline Baxter AHF7124
Sample Name Sample ID MW Conc. Solvent Source […]

[6] = In vitro metabolic stability, rat liver microsomes (Monash); type: in vitro ADME; settings: Monash; for microsomal CLint at 1 µM: read-out: RLM Clint (Monash); for half-life at 1 µM: read-out: RLM t1/2 (Monash)
Experimental: as §1, §2, §3, §4, §5, §6, §7, §8, §9, §10, §11, §12, §13, §14, §15, §16, §17, §18, §19, §20, §21

[7] = system: PMM (primary mouse macrophages); test: Toxicity against PMM; type: cell-based; settings: PMM
Experimental: (§23) ADME and toxicity for compounds were measured according to procedures outlined in the manuscript submitted in parallel to this one;2 other procedures were used for those compounds analysed by Monash University (in vitro ADME) or UCL (toxicity), both described in the main

[8] = system: MRC-5SV2 (human lung fibroblast cell line); test: Toxicity against MRC-5SV2; type: cell-based; settings: MRC5 cells
Experimental: as §23

THP1 = test: Toxicity against THP1; type: cell-based; settings: THP1 cells
Description: Supplement id3c00286_si_002.xlsx, sheet "Series 2 Data" | column: THP1 TC50 (uM)

[9] = Rat hepatocyte intrinsic clearance; type: in vitro ADME; settings: rat hepatocytes, NEU; read-out: Rat Hep CLint (NEU)
[10] = Human liver microsome intrinsic clearance; type: in vitro ADME; settings: human liver microsomes, NEU; read-out: HLM CLint (NEU)
[11] = system: Enterococcus faecalis ATCC 51299 (vanA-positive; vancomycin-resistant); test: In vitro antibacterial activity, MIC (UCL), VRE; type: cell-based; settings: read-out: VRE MIC (UCL)
Summary of the method: (§24)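 Growth inhibition was read as MIC across a two-fold range of 32 down to 0.03 μg/mL in isosensitest broth. Bacteria from overnight plates were set to A600 0.1 in PBS, about 1 × 10^8 CFU/mL, and diluted 1:100 before inoculation.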

U2OS = test: Toxicity against U2OS; type: cell-based; settings: U2OS cells
Description: Supplement id3c00286_si_002.xlsx, sheet "Series 2 Data" | column: U2OS TC50 (uM)

Aqueous solubility = type: physicochemical; settings: thermodynamic from solid; NEU; read-out: Aqueous Solubility (NEU)
[12] = system: Staphylococcus aureus NCTC 13373 (mecA-positive; methicillin-resistant); test: In vitro antibacterial activity, MIC (UCL School of Pharmacy assay), MRSA; type: cell-based; settings: Staphylococcus aureus, UCL; read-out: MRSA MIC (UCL)
Summary of the method: as §24

[13] = Human plasma protein binding (PPB); type: in vitro ADME; settings: human plasma, NEU
LogD7.4 (Chrom Log D) = type: physicochemical; settings: chromatographic system (Chrom Log D); pH 7.4, NEU; read-out: LogD 7.4 (NEU)
[14] = 0.01 M HCl, simulated gastric fluid, pH 2.0, read-out: Sol (pH 2.0) (Monash)
[15] = pH 6.5 phosphate buffer, pH 6.5, aqueous buffer, read-out: Sol (pH 6.5) (Monash)

| microsomal CLint at 1 µM [1] [µL/min/mg] | half-life at 1 µM [1] [min] | solubility kinetic at 30 min [2, 14] [µg/mL] | solubility kinetic at 30 min [2, 15] [µg/mL] | chromatographic logD [3] | MIC [5] [µg/mL] | microsomal CLint at 1 µM [6] [µL/min/mg] | half-life at 1 µM [6] [min] | hepatocyte CLint [9] [µL/min/1e6 cells] | microsomal CLint [10] [µL/min/mg] | MIC [11] [µg/mL] | solubility (Aqueous solubility) [µM] | MIC [12] [µg/mL] | Compound | PMM TC50 [7] [µM] | MRC5 TC50 [8] [µM] | THP1 TC50 (THP1) [µM] | U2OS TC50 (U2OS) [µM] | further results |
| --- | --- | --- | --- | --- | --- | --- | --- | --- | --- | --- | --- | --- | --- | --- | --- | --- | --- | --- |
| 37 | 47 | 25 to 50 (≈ 77.3 to 155 µM) | 12.5 to 25 (≈ 38.7 to 77.3 µM) | 1.6 | 32 (≈ 99 µM) | 74 | 23 |  |  |  |  |  | c1ccc(-c2nc3n(c2-c2ccc4c(c2)OCO4)CCS3)nc1 [OSA_000813] |  |  |  |  | MLM E (UNC) ([4]; mouse liver microsomes): 0.873; CLint scaled ([4]; mouse, liver microsomes): 619 mL/min/kg; half-life ([4]; mouse, liver microsomes, read-out: MLM t1/2 (UNC)): 9.08 min |
| 47 | 37 | > 100 | 25 to 50 (≈ 79.3 to 159 µM) | 1.8 | 32 (≈ 101 µM) | 99 | 18 |  |  |  |  |  | c1ccc(-c2nc3ccccn3c2-c2ccc3c(c2)OCO3)nc1 [OSA_000814] |  |  |  |  |  |
|  |  |  |  |  |  |  |  | 82.3 | < 3 | > 32 | 22 (≈ 7.42 µg/mL) | > 32 | COc1ccn2c(Nc3ccccc3F)c(-c3cnn(C)c3)nc2c1 [OSA_000855] | 64 | 64 | 50 | 50 | Human PPB (NEU) [13]: Low recovery,Unstable in plasma |
|  |  |  |  |  |  |  |  | 25.1 | > 300 | > 32 | 85 (≈ 27.1 µg/mL) | 16 (≈ 50.1 µM) | COc1ccn2c(-c3ccc(F)cc3)c(-c3ccccn3)nc2c1 [OSA_000858] | 8 | 3.62 | 7.63 | 1.28 | chromatographic logD (LogD7.4 (Chrom Log D)): 2.9; fraction unbound ([13]; human, plasma, read-out: Human PPB (NEU) (converted)): 0.054 |
